Measurements as given in the METLIN SMRT retention time set (Domingo-Almenara et al. 2019).

Assay: gradient 5% acetonitrile 3 min, to 50% in 2 min, to 85% in 15 min, held 3 min, 100 µL/min
Settings: column: Zorbax Extend-C18 2.1 x 50 mm; eluents: water / acetonitrile, 0.1% formic acid
Summary of the method: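 Data were gathered over 3 months by HPLC coupled to a quadrupole time-of-flight mass spectrometer, operated in positive and negative ionization mode. Mixtures of ~100 pure standards ran on a Zorbax Extend-C18 column (2.1 × 50 mm, 1.8 μm) at 100 μL/min, with water and acetonitrile each containing 0.1% formic acid and dead and dwell volumes of 40 μL and 900 μL. Retention time was read from adduct peaks picked by computer and checked manually.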

| RP-LC retention time [s] | SMILES |
| --- | --- |
| 610 | O=c1n(CC2CC2)nc2n1CCN(Cc1cccc(O)c1)C2 |
| 963 | N#Cc1ccc2ccn(CC(=O)N3CCCc4ccccc43)c2c1 |
| 725 | COc1ccc(NC(=O)c2ccc(C(=N)N(C)C)cc2)c(C(=O)Nc2ccc(Cl)cn2)c1 |
| 874 | CCCCNC(=O)Cn1c(=O)cc(-c2nc(C3CC3)no2)c2ccccc21 |
| 571 | Cc1cn(C)c(CC(=O)NCCCN2CCOCC2)c1C(=O)O |
| 999 | Cc1cc(C)c(NC(=O)Cn2c(=O)cc(-c3nc(C4CC4)no3)c3ccccc32)c(C)c1 |
| 730 | CC1(C(=O)NCc2cccc(Br)c2)Oc2cccnc2NC1=O (stereo unspecified) |
| 627 | O=C(COc1ccc(F)cc1)N1CC(n2cnnc2C2CC2)C1 |
| 872 | CCOc1ccc(NC(=O)N2CCCC(C)(C(=O)NCc3cccc(OC)c3)C2)cc1 (stereo unspecified) |
| 1280 | Cn1nccc1-c1cccc(-c2noc(-c3ccc(F)c(Cl)c3)n2)c1 |
| 1160 | Cc1cccc(NC(=O)c2cc(C(C)C)n3nccc3n2)c1 |
| 1110 | COc1c(C(=O)NC(C)(C)C)sc2cccc(F)c12 |
| 785 | COc1ccc(Cl)cc1S(=O)(=O)N1C[C@@H](F)C[C@H]1C(=O)N1CCCCC1 |
| 1220 | Cc1cc(C)n(-c2ccnc(N3CCN(c4ccccc4F)CC3)n2)n1 |
| 696 | CC1CCN(C(=O)c2ccccc2OCC2CCCN(C3CCCC3)C2)CC1 (stereo unspecified) |
| 863 | O=C1CCc2cc(S(=O)(=O)NCc3ccccc3Cl)cc3c2N1CCC3 |
| 865 | CC(C)N1C(=O)c2cccnc2Sc2cc(NC(=O)c3c(F)cccc3F)ccc21 |
| 944 | CCOc1ccc(-c2noc(CN3C(=O)COc4ccc(S(=O)(=O)CC)cc43)n2)cc1 |
| 981 | O=C(Nc1nc(-c2ccc(Cl)cc2Cl)cs1)c1ccno1 |
| 882 | CCc1ccccc1NC(=O)C(C)n1cnc2nc(N3CCCCC3)ncc2c1=O (stereo unspecified) |
| 716 | CCCn1c(CCNC(=O)c2cc(C)cc(C)c2)nc2cccnc21 |
| 979 | CCN1C(=O)COc2cc(-c3noc(C(=O)NCCC(C)C)n3)ccc21 |
| 574 | Cc1ccn2c(C(C)O)nnc2c1 (stereo unspecified) |

| RP-LC retention time [s] | SMILES |
| --- | --- |
| 1100 | COC(=O)C(C)n1nc2nc(Nc3ccc(C)c(F)c3)cc(C)n2c1=O (stereo unspecified) |
| 563 | O=C(NCCCN1CCOCC1)c1ccc(-c2ccc(N3CCCCC3)nn2)cc1 |
| 923 | Cc1nc(-c2ccc3c(c2)CCN3C(=O)Cc2cccc(F)c2)no1 |
| 687 | O=C(CCc1ccccc1)Nc1c(-c2ccc(F)cc2)nc2ccccn12 |
| 852 | Cc1ccc(NC(=O)Nc2nc(C(=O)Nc3ccc4c(c3)OCO4)cs2)cc1 |
| 754 | CC(C)C(=O)NCc1nc(-c2ccccc2Cl)no1 |
| 722 | C1CCc2nc3c(nc2C1)CCCC3 |
| 608 | CS(=O)(=O)c1ccc(NC(=O)CSc2ccc(N3CCCC(C(=O)NC4CC4)C3)nn2)cc1 (stereo unspecified) |
| 1070 | O=C(c1cccs1)N1CCN(c2ccc(-c3noc(C4CCC4)n3)cc2)CC1 |
| 626 | Cc1cnc(-c2ccncc2)n1CC1CCN(S(=O)(=O)c2ccc3c(c2)OCCO3)C1 (stereo unspecified) |
| 804 | CN(CC1CCOCC1)C(=O)Nc1cc(F)c(F)c(F)c1 |
| 1170 | O=S(=O)(c1ccc(Cl)cc1)N1CCC(c2noc(-c3ccccc3)n2)CC1 |
| 665 | Cc1ccc(C(=O)NCc2cnoc2-c2ccc(F)cc2)cn1 |
| 718 | COc1ccc(C(=O)N2CCCCC2c2nncn2CC2CC2)cc1F (stereo unspecified) |
| 679 | CCC(=O)NCCc1csc(C2CCN(C(=O)C3CCC3)CC2)n1 |
| 1040 | CCOC(=O)c1cccc(Nc2c(-c3ccc(Br)cc3)nc3cnccn23)c1 |
| 794 | CCC1Oc2ccc(S(=O)(=O)N3CCC(C(=O)Nc4ccccc4)CC3)cc2NC1=O (stereo unspecified) |
| 832 | COC(=O)C1=CN(c2ccccc2C)c2cc(F)ccc2S1(=O)=O |
| 599 | O=C(N[C@@H]1CN(Cc2cc(F)c(F)cc2F)C[C@H]1CO)C1CCC1 |
| 1060 | O=C(Nc1nccs1)C1CCCN(S(=O)(=O)c2cc(-c3noc(C4CCCC4)n3)cs2)C1 (stereo unspecified) |
| 860 | Cn1ncc2c3ccccc3n(CC(=O)NCCc3c[nH]c4ccc(Cl)cc34)c2c1=O |
| 1130 | CCOc1ccccc1-c1noc(-c2nnn3c2COC(c2ccc(F)cc2)C3)n1 (stereo unspecified) |
| 757 | Cc1cc(C2CCCN2C(=O)Nc2ccccc2C)no1 (stereo unspecified) |

| RP-LC retention time [s] | SMILES |
| --- | --- |
| 1030 | COc1cccc(CCc2nc(-c3ccc4oc(C)nc4c3)no2)c1 |
| 1260 | CCCS(=O)(=O)N1CC2(CCCCC2)CC1COCc1ccccc1 (stereo unspecified) |
| 642 | Cc1cc(C)n(-c2ccc(N3CCC(C(=O)NCc4ccc5c(c4)OCO5)CC3)nn2)n1 |
| 752 | O=C(CCc1c(-c2ccc(F)cc2)nc2ccccn12)Nc1cccc(C(F)(F)F)c1 |
| 1270 | Clc1ccccc1-c1nc(-c2ccc(-n3cccn3)nc2)no1 |
| 728 | Cc1ccc(NCCCc2ccccc2)c(N)c1 |
| 1080 | CC1CCc2c(C(=O)NCCc3ccccc3)csc2C1 (stereo unspecified) |
| 814 | Cc1cccc2c(=O)n(C)c(CCC(=O)NCc3cc(F)ccc3F)nc12 |
| 570 | CN(C)CC1(O)CCC2(CCN(C(=O)c3ccoc3)CC2)CC1 |
| 896 | Cc1ccc(CN2N=C(C(=O)N3CCOCC3)S(=O)(=O)c3cc(Cl)ccc32)cc1 |
| 806 | COc1cccc(N2CCN(c3ccnc(SCC(=O)Nc4ccc(F)c(Cl)c4)n3)CC2)c1 |
| 616 | CC(C)NC(=O)c1ccc2c(c1)nc(CN(C)C(=O)Nc1ccc3c(c1)OCCO3)n2C |
| 1170 | CCOc1ccc(-c2cc3c(=O)n(Cc4nc(-c5ccccc5C)no4)ccn3n2)cc1 |
| 617 | O=C(CC1CCCN(c2cn[nH]c(=O)c2)C1)N1CCSCC1 (stereo unspecified) |
| 1150 | Cc1oc2ccn(Cc3ccccc3F)c(=O)c2c1C(=O)NC(C)c1ccccc1 (stereo unspecified) |
| 598 | Cc1ccccc1S(=O)(=O)N1CC[C@@H]2CN(Cc3cccnc3)[C@@H]2C1 |
| 864 | CSc1ccc(-c2nc3ncccn3c2Nc2cc(C)ccc2C)cc1 |
| 1020 | COC(=O)c1ccc(Cl)cc1NC(=O)NCCCn1c(C(F)(F)F)nc2cccnc21 |
| 668 | O=C(NCc1cccnc1)C1c2ccccc2C(=O)N1CCc1ccc(Cl)cc1 (stereo unspecified) |
| 646 | COCCc1nncn1C1CCN(C(=O)c2ccccc2OC(F)(F)F)CC1 |
| 784 | O=C(Cc1ccccc1F)NC(c1ccccc1)c1nnc(N2CCCC2)o1 (stereo unspecified) |
| 919 | Cn1c(C(=O)Nc2ccccc2F)cc2c(=O)oc3ccccc3c21 |
| 963 | Cc1cc(S(=O)(=O)N(C)CC2CCOCC2)ccc1Cl |

| RP-LC retention time [s] | SMILES |
| --- | --- |
| 1350 | CC1=C(c2ccc(C)c(C)c2)S(=O)(=O)N=C1N1CCC(NC(=O)NC(C)(C)C)CC1 |
| 762 | CC(=O)c1cccc(NC(=O)Cn2ccc3ccc(-c4nnc(C)o4)cc32)c1 |
| 762 | Cc1cc(C(=O)Nc2ccc(CC(=O)NCc3cccs3)cc2)c(C)o1 |
| 920 | O=c1c2c(CO)c(-c3ccccc3)nn2ccn1Cc1cccc(F)c1 |
| 606 | COC(=O)Nc1nc(CC(=O)NCc2ccco2)cs1 |
| 859 | Cc1cc(OCC(=O)N(C)c2ccccc2)nc(N2CCN(c3ccccc3)CC2)n1 |
| 1280 | Cc1ccccc1OCCCC(=O)Nc1nc(-c2ccc(Br)cc2)cs1 |
| 876 | CN(C1CCc2nn(CC3CC3)c(=O)n2CC1)S(=O)(=O)c1ccc(C(F)(F)F)cc1 (stereo unspecified) |
| 683 | CCCCNC(=O)C1CCN(c2nc(NC(C)=O)c(C(=O)N3CCCC3)s2)CC1 |
| 950 | O=c1c2cnc3nc(-c4ccccc4Cl)nn3c2ccn1CCc1c[nH]c2ccccc12 |
| 704 | Cn1c(N2CCC(C(=O)N3CCN(c4ccc(F)cc4)CC3)CC2)cc(=O)n(C)c1=O |
| 660 | Fc1ccc(-c2noc3ncnc(N4CCN(c5ccccn5)CC4)c23)cc1 |
| 709 | CCOc1ccc(S(=O)(=O)N2CCC(C(=O)NCCOC)CC2)cc1 |
| 948 | O=C(NCC(c1cccs1)S(=O)(=O)c1ccc(F)cc1)c1nc2ccccc2s1 (stereo unspecified) |
| 773 | CCCCNC(=O)Cn1c(=O)c2cccn2c2ccc(F)cc21 |
| 819 | CN(CC(=O)O)S(=O)(=O)c1ccc(Cl)c(-c2nnc(-c3ccccc3)o2)c1 |
| 910 | Cc1ccc(S(=O)(=O)c2nc(SCC(=O)N3CCCCC3)sc2Cl)cc1 |
| 729 | Cc1ccc(CNC(=O)Cn2ccc3ccc(-c4nnc(C)o4)cc32)o1 |
| 681 | CCOC(=O)c1csc(NC(=O)Cc2ccc(S(=O)(=O)CC)cc2)n1 |
| 695 | CC(=O)c1ccc(N2CCN(C(=O)c3ccc(-n4cccn4)nn3)CC2)cc1 |
| 809 | COc1cc(CNC(=O)c2cccc3c2CCN3C(=O)C2CC2)cc(OC)c1 |

| SMILES | RP-LC retention time [s] |
| --- | --- |
| CN1C2CC(OC(=O)C(CO)c3ccccc3)CC1C(O)C2 (stereo unspecified) | 586 |
